In PubChem BioAssay (NCI) one finds GI50 and TGI data, which are given here for twelve compounds.

Where “and” joins values, the source holds several entries; their conditions need not be identical. Equal values may be shown once.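 All cell lines were grown in 96-well plates and treated with compound for 48 hours. GI50 marks 50% less growth. TGI denotes the concentration required for complete inhibition of growth.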

Some test systems named below: CCRF-CEM leukemia; DU-145 prostate; KM12 colon; MDA-MB-435; OVCAR-5 ovarian; PC-3 prostate; SF-295 CNS; SN12C renal; SNB-19 CNS; U251 CNS.
Holding throughout (experiment): inhibition of tumour cell growth, NCI panel, 48 h

Take `COc1ccc2c(O)c(/C=C3\N=Nc4ncccc43)oc2c1C[C@H]1CCNC[C@H]1F`: the GI50 is 0.227 µM in the test on CCRF-CEM leukemia; 0.753 µM in the test on DU-145 prostate; 0.39 µM with KM12 colon; 0.467 µM in the test with MDA-MB-435; 0.479 µM in the test with OVCAR-5 ovarian; 0.267 µM in the test with PC-3 prostate. Moreover, the GI50 was 0.343 µM with SF-295 CNS, 0.442 µM in the test with SN12C renal, 0.419 µM with SNB-19 CNS and 0.307 µM in the test with U251 CNS. The TGI is 0.876 µM in the test with CCRF-CEM leukemia; 12 µM in the test on DU-145 prostate; 4.79 µM with KM12 colon; 10.6 µM with MDA-MB-435; 24.6 µM in the test on OVCAR-5 ovarian; 11.1 µM in the test with PC-3 prostate. Further, the TGI in the test on SF-295 CNS was determined as 11.9 µM; in the test with SN12C renal it was 10.6 µM; in the test on SNB-19 CNS it was 11.6 µM; in the test with U251 CNS, 3.29 µM.
`Cc1cc(O)c(C2=NN(c3ccc(S(N)(=O)=O)cc3)C(c3ccccc3O)C2)cc1Cl` (stereo not drawn): the GI50 with CCRF-CEM leukemia was 3.12 µM; in the test on DU-145 prostate, 2.41 µM; with KM12 colon, 1.74 µM; in the test on MDA-MB-435, 2.01 µM; in the test with OVCAR-5 ovarian, 1.7 µM; in the test on PC-3 prostate, 1.33 µM. In addition, the GI50 was 1.68 µM in the test with SF-295 CNS, 2.8 µM in the test with SN12C renal, 3.5 µM in the test with SNB-19 CNS and 2.14 µM with U251 CNS. Moreover, the TGI was greater than 24.7 µM with CCRF-CEM leukemia; 4.95 µM in the test on DU-145 prostate; 3.4 µM in the test with KM12 colon; 4.32 µM in the test on MDA-MB-435; 3.61 µM in the test on OVCAR-5 ovarian; 3.26 µM in the test with PC-3 prostate. The TGI worked out at 3.5 µM in the test on SF-295 CNS, 8.65 µM in the test with SN12C renal, 11.4 µM in the test on SNB-19 CNS and 5.16 µM with U251 CNS.
`Fc1c[c-]c(-c2ccccn2)c(F)c1.[CH3-].[Pt+2].c1ccc([PH+](c2ccccc2)c2ccccn2)cc1`: the GI50 with CCRF-CEM leukemia is 1.38 µM; in the test on DU-145 prostate, 1.79 µM; in the test with KM12 colon it was 2.53 µM; in the test with MDA-MB-435, 1.74 µM; in the test on OVCAR-5 ovarian it was 1.72 µM; with PC-3 prostate, 1.41 µM. The GI50 in the test on SF-295 CNS was 4.91 µM; in the test on SN12C renal, 1.51 µM; in the test with SNB-19 CNS it was 3.25 µM; with U251 CNS it was 1.88 µM. Also, the TGI in the test with CCRF-CEM leukemia was greater than 100 µM; in the test on DU-145 prostate, 3.92 µM; in the test with KM12 colon, 6.49 µM; in the test on MDA-MB-435, 3.45 µM; in the test on OVCAR-5 ovarian it was 3.63 µM; in the test with PC-3 prostate it was 3.89 µM. Further, the TGI is 62.5 µM in the test on SF-295 CNS, 4.24 µM in the test with SN12C renal, greater than 100 µM with SNB-19 CNS and 6.02 µM with U251 CNS.
Regarding `COc1cc(OC)cc(-c2ccc(-c3ccc(C(=N)N)s3)s2)c1`, the GI50 with CCRF-CEM leukemia was 1.24 µM and 0.277 µM; with DU-145 prostate, 1.31 µM; in the test on KM12 colon it was 0.517 µM and 0.302 µM; in the test with MDA-MB-435, 0.271 µM; with OVCAR-5 ovarian, 1.5 µM; in the test with PC-3 prostate, 1.42 µM. Further, the GI50 in the test on SF-295 CNS is 1.65 µM; with SN12C renal, 1.74 µM; in the test on SNB-19 CNS it was 1.72 µM; in the test with U251 CNS it was 0.404 µM. Also, the TGI in the test with CCRF-CEM leukemia is 2.9 µM and 0.75 µM; with DU-145 prostate, 2.77 µM; in the test on KM12 colon, 2.04 µM and 1.13 µM; with MDA-MB-435, 0.991 µM; with OVCAR-5 ovarian, 3.19 µM; with PC-3 prostate, 2.93 µM. Besides, the TGI was found to be 3.22 µM in the test with SF-295 CNS, 4.32 µM in the test on SN12C renal, 3.69 µM with SNB-19 CNS and 1.73 µM in the test with U251 CNS.
In the case of `C=CC(=O)NCCOc1cccc(Nc2cc(NCCCNC(=O)C3CCC3)c(Br)cn2)c1`, the GI50 in the test on CCRF-CEM leukemia was 1.04 µM; with DU-145 prostate it was 1.21 µM; in the test with KM12 colon, 0.954 µM; in the test on MDA-MB-435 it was 2.49 µM; in the test on OVCAR-5 ovarian, 1.84 µM; in the test with PC-3 prostate, 1.3 µM. The GI50 is 1.34 µM in the test with SF-295 CNS, 0.623 µM in the test with SN12C renal, 1.08 µM with SNB-19 CNS and 0.851 µM in the test on U251 CNS. Besides, the TGI in the test on CCRF-CEM leukemia is greater than 25 µM; in the test on DU-145 prostate, greater than 25 µM; with KM12 colon, greater than 25 µM; in the test with MDA-MB-435 it was 6.03 µM; with OVCAR-5 ovarian, 10.5 µM; in the test with PC-3 prostate, 11 µM. Besides, the TGI with SF-295 CNS was 23.4 µM; with SN12C renal it was greater than 25 µM; in the test with SNB-19 CNS it was 14 µM; with U251 CNS it was 18.7 µM.
Regarding `O=[N+]([O-])c1cccc(/C=C/c2ccccn2)c1`, the GI50 is 7.91 µM with CCRF-CEM leukemia; 35.6 µM with DU-145 prostate; 24.2 µM with KM12 colon; 67 µM in the test with MDA-MB-435; 49.7 µM with OVCAR-5 ovarian; 29.1 µM in the test with PC-3 prostate. The GI50 in the test with SF-295 CNS is 35.6 µM; in the test with SN12C renal, 38.8 µM; in the test on SNB-19 CNS it was 39 µM; in the test on U251 CNS, 6.68 µM. The TGI was 43 µM in the test with CCRF-CEM leukemia; greater than 100 µM in the test on DU-145 prostate; greater than 100 µM in the test with KM12 colon; greater than 100 µM in the test with MDA-MB-435; greater than 100 µM with OVCAR-5 ovarian; greater than 100 µM in the test on PC-3 prostate. In addition, the TGI with SF-295 CNS, in the test with SN12C renal, in the test with SNB-19 CNS and with U251 CNS was greater than 100 µM each time.
Turning to `COc1ccc(N2CCN(CN3CCN(c4ccc(OC)cc4)C3)C2)cc1`, the GI50 in the test with CCRF-CEM leukemia is 33.4 µM; in the test on DU-145 prostate it was 79.7 µM; in the test on KM12 colon it was greater than 100 µM; with MDA-MB-435 it was greater than 100 µM; with OVCAR-5 ovarian it was greater than 100 µM; in the test on PC-3 prostate it was greater than 100 µM. Further, the GI50 in the test on SF-295 CNS, in the test on SN12C renal, with SNB-19 CNS and with U251 CNS was greater than 100 µM each time. Further, the TGI with CCRF-CEM leukemia, in the test with DU-145 prostate, with KM12 colon, with MDA-MB-435, in the test with OVCAR-5 ovarian and with PC-3 prostate was greater than 100 µM each time. Also, the TGI in the test with SF-295 CNS, in the test on SN12C renal, with SNB-19 CNS and with U251 CNS was greater than 100 µM each time.
In the case of `CNS(=O)(=O)c1ccccc1C(=N)c1ccccc1`, the TGI in the test on CCRF-CEM leukemia, in the test with DU-145 prostate, in the test with KM12 colon, in the test on MDA-MB-435, with OVCAR-5 ovarian and in the test on PC-3 prostate was greater than 100 µM throughout. Moreover, the TGI in the test on SF-295 CNS, in the test with SN12C renal, in the test on SNB-19 CNS and with U251 CNS was greater than 100 µM in each case.
As for `COc1cc(/C=C/C(=O)NC[C@]2(O)CCC3C4CCc5cc(O)ccc5C4CCC32C)ccc1O` (stereo partly drawn), the GI50 in the test with CCRF-CEM leukemia is 3.18 µM; with DU-145 prostate it was 23.9 µM; in the test with KM12 colon it was 5.68 µM; in the test with MDA-MB-435 it was 4.46 µM; in the test with OVCAR-5 ovarian, 56.9 µM; in the test on PC-3 prostate, 5.2 µM. Moreover, the GI50 is 6.71 µM in the test with SF-295 CNS, 25.4 µM in the test on SN12C renal, 49 µM in the test on SNB-19 CNS and 8.47 µM in the test on U251 CNS. The TGI was 86.1 µM in the test on CCRF-CEM leukemia; greater than 100 µM in the test with DU-145 prostate; 36 µM with KM12 colon; 37.5 µM in the test on MDA-MB-435; greater than 100 µM in the test with OVCAR-5 ovarian; greater than 100 µM in the test with PC-3 prostate. The TGI in the test on SF-295 CNS, in the test with SN12C renal, in the test with SNB-19 CNS and in the test on U251 CNS was greater than 100 µM throughout.
`S=c1nc[nH]c2nc[nH]c12`: the GI50 with CCRF-CEM leukemia is 0.972 µM; in the test on DU-145 prostate it was 0.825 µM and 3.96 µM; with MDA-MB-435, 0.61 µM; in the test on OVCAR-5 ovarian, 5.75 µM and > 32.3 µM; with PC-3 prostate, 7.96 µM and 18.7 µM; in the test on SF-295 CNS it was 1.76 µM and 12.3 µM. In addition, the GI50 is 65.9 µM and 213 µM in the test with SNB-19 CNS; 19.3 µM and 72.4 µM in the test on U251 CNS. Further, the TGI was > 100 µM and 310 µM with CCRF-CEM leukemia; greater than 750 µM with DU-145 prostate; > 100 µM and 716 µM and > 707 µM with KM12 colon; greater than 750 µM in the test on MDA-MB-435; > 100 µM and 651 µM and > 750 µM with OVCAR-5 ovarian; greater than 750 µM in the test with PC-3 prostate. In addition, the TGI with SF-295 CNS was > 100 µM and 735 µM and > 750 µM; in the test with SN12C renal, > 100 µM and 680 µM and > 750 µM; with SNB-19 CNS, greater than 750 µM; in the test on U251 CNS, > 100 µM and 719 µM and > 750 µM.
`CC(C)[C@](O)(C(=O)OCC1=CC[N+]2([O-])CC[C@@H](O)[C@@H]12)[C@H](C)O` (stereo partly drawn): the TGI in the test on CCRF-CEM leukemia, in the test with DU-145 prostate, in the test with KM12 colon, with MDA-MB-435, in the test on OVCAR-5 ovarian and with PC-3 prostate was greater than 10000 µM throughout. In addition, the TGI in the test on SF-295 CNS, in the test with SN12C renal, in the test with SNB-19 CNS and in the test with U251 CNS was greater than 10000 µM throughout.
Take `Cc1cc(C(=O)N[C@@H](CCC(=O)O)C(=O)O)sc1CC[C@@H]1CNc2nc(N)[nH]c(=O)c2C1`: the GI50 in the test on CCRF-CEM leukemia is 0.0316 µM; with DU-145 prostate, less than 0.0104 µM; with KM12 colon, 0.046 µM; with MDA-MB-435 it was 0.0296 µM; in the test with OVCAR-5 ovarian, 0.026 µM; with PC-3 prostate, less than 0.01 µM. Moreover, the GI50 in the test with SF-295 CNS was 0.0496 µM; in the test on SN12C renal, 0.0253 µM; in the test on SNB-19 CNS, 0.0853 µM; in the test on U251 CNS, 0.0274 µM. The TGI in the test on CCRF-CEM leukemia, with DU-145 prostate, with KM12 colon, in the test on MDA-MB-435, in the test with OVCAR-5 ovarian and in the test on PC-3 prostate was greater than 100 µM each time. For the same compound, the TGI in the test with SF-295 CNS, with SN12C renal, with SNB-19 CNS and in the test on U251 CNS was greater than 100 µM in each case.
